Source: PMC6429117, “Discovery of Galangin as a Potential DPP-4 Inhibitor That Improves Insulin-Stimulated Skeletal Muscle Glucose Uptake: A Combinational Therapy for Diabetes” (International Journal of Molecular Sciences, 2019)
pIC50: −log10 of the molar value.

Biological target: T1, dipeptidyl peptidase-4 (DPP-4) (Homo sapiens, UniProt P27487)
T1 construct: gene DPP4; recombinant human DPP-4 enzyme
Experiment: fluorogenic enzyme inhibition assay (H-Gly-Pro-AMC cleavage, Sigma DPP-4 inhibitor screening kit)
Type: biochemical

T1 sequence (P27487 39-766): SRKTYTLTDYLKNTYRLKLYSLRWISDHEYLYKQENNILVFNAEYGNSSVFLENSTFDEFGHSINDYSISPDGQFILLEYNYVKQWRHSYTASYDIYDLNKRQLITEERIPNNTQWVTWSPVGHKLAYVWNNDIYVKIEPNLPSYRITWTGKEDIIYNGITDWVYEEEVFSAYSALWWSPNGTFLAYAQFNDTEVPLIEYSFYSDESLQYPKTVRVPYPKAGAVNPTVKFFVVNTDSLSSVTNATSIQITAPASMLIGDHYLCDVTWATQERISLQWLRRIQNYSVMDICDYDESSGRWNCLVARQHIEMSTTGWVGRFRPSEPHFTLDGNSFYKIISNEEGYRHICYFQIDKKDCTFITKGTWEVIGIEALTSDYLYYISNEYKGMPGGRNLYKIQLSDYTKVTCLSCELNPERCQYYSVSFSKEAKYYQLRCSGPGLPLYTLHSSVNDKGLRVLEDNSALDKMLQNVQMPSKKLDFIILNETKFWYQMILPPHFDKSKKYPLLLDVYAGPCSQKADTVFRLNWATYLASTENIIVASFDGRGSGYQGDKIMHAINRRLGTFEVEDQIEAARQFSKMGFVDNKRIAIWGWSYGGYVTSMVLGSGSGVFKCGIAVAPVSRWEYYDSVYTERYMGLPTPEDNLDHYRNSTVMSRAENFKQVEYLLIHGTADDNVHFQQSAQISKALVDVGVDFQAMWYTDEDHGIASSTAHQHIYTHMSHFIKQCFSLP

In the case of `O=c1c(O)c(-c2ccccc2)oc2cc(O)cc(O)c12` [Galangin, 3,5,7-trihydroxyflavone], the pIC50 was 4.40.
